Experimental findings from PMC10192568, “Comparison of pharmacokinetic profiles of seven major bioactive components in normal and non-alcoholic fatty liver disease (NAFLD) rats after oral administration of Ling-Gui-Zhu-Gan decoction by UPLC-MS/MS” (Frontiers in Pharmacology, 2023) are described below.

Usually AUC(0-inf) stands for the area under the concentration-time curve extrapolated to infinity. Read a low AUC(0-inf) as low exposure. A word on the AUC(0-t): it is the area under the concentration-time curve up to a stated or last time point. In general, Cmax refers to the peak of the concentration-time curve. For orientation: Tmax means the time from dosing to the highest level. For orientation: half-life means how long it takes for the measured level to halve. Low values mean fast loss, high ones slow loss.

The nature of series [1]: Pharmacokinetic study of LGZGD components in plasma of normal and NAFLD rats after oral administration (UPLC-MS/MS). The conditions noted are these: for AUC0-∞ value decreased / C max value decreased: NAFLD rats compared with normal rats; for AUC(0-inf) / AUC(0-t) / Cmax / Tmax / half-life / MRT last: male, Sprague-Dawley, rat, plasma, po, 23 g/kg, male SD rats, oral LGZGD extract 23 g/kg, mean ± SD, n = 6; for MRT last: read-out: MRT0-t. Format: in vivo, Male Sprague–Dawley rats. The procedure:
Male Sprague–Dawley rats, weighing 200–220 g, SPF grade, were purchased from Shanghai Sippr-BK laboratory animal Co. Ltd. (Shanghai, China) and raised in the Laboratory Animal Center of Shanghai University of Traditional Chinese Medicine. The rats were kept in an environmentally controlled condition: on a 12:12 h light–dark cycle (lights on at 7:00 a.m.) with regulated temperature and humidity, at a temperature of 22°C–24°C and a relative humidity of 60–65%. In the experiment, the rats in the normal group were fed a certified standard rat diet and tap water, while those in the model group were fed a high-fat diet for 8 weeks to construct the NAFLD model (high-fat diet: 2% cholesterol, 10% lard, 0.1% sodium cholate, 10% yolk powder, and 77.9% normal diet). The animal experiment program was approved by the Animal Committee of Shanghai University of Traditional Chinese Medicine (License No.: PZSHUTCM201016001).
An Agilent 1290 UPLC system was combined with an Agilent 6460 series MS/MS system (Agilent Technologies, Santa Clara, CA, United States) to quantify the analytes in the ESI-positive ionization mode. The mass spectrum conditions were as follows: a capillary voltage of 4,000 V; a gas flow rate of 10 L/min; a nebulizer of 30 psi; a gas temperature of 350°C; and a Delta EMV(+) of 200 V. Five microliters of the samples was injected into an Agilent SB-C18 column (2.1 mm × 50 mm, 1.8 μm particles). The analytes were separated using the gradient elution method, and the mobile phase was composed of water (0.05% V/V formic acid) (A) and acetonitrile (B) at a flow rate of 0.4 mL/min (0–1 min, 10–10% B; 1–5 min, 10–90% B; 5–7 min, 90–90% B; and 7–7.1 min, B 90–10%; rebalance for 2 min).
A plasma sample of 50 µL was placed in a 1.5 mL centrifuge tube with 10 µL of schisandrin (IS) solution (50 ng/mL) and mixed for 5 min. The samples were successively extracted with 500 µL of ethyl acetate and treated with 250 µL of methanol, which were then mixed for 5 min and centrifuged at 4°C for 10 min (at 18,000 rpm). All the supernatant was absorbed into another 1.5 mL centrifuge tube, dried under a gentle stream of nitrogen at 37°C, and then added with 50 µL of 50% methanol for reconstruction. After being centrifuged at 4°C for 10 min (at 18,000 rpm), 5 µL of the supernatant was extracted and injected into a chromatographic column for analysis, and the chromatograms were recorded.
The rats were randomly divided into the normal group and the model group. According to the preliminary experiment, the dose was adjusted to about eight times the normal dose ([Gu, 2020]; [Li et al., 2023]). […] The animal research program was approved by the Animal Committee of Shanghai University of Traditional Chinese Medicine. At 0, 0.083, 0.25, 0.5, 0.75, 1, 2, 4, 6, 8, 10, 12, 24, and 48 h after dosing, 150 µL blood samples were collected from the rats' orbital venous plexus into centrifuge tubes containing 10 IU of sodium heparin. After being centrifuged at 5,000 rpm (4°C) for 10 min, the plasma was transferred to 1.5 mL polypropylene tubes and stored at −80°C until the plasma samples were analyzed.
Important pharmacokinetic parameters, which included the maximum plasma concentration (C max), time to maximum concentration (T max), half-life (t 1/2), area under the curve (AUC0-t), and total area under the curve (AUC0-∞), were hereby calculated using the DAS 3.2.8 software. Meanwhile, the pharmacokinetic data of the normal and model rats were compared using the SPSS software (version 21.0). Besides, Spearman rank bivariate correlation coefficient was used to determine the correlation between AUC values and UGT1A1 and nine other transporters. All the calculated data were expressed as mean ± SD. When p < 0.05, the difference was considered significant and statistically significant; and when p < 0.01 or <0.001, the difference was considered very significant.

Series [2] can be described thus: Stability of the seven components in rat plasma QC samples. The conditions noted are these: n = 6; for Stability during 24 h at 4°C, RE: auto sampler. Format: physicochemical. Here is the method:
Stability refers to the ability of the components to retain their chemical properties in the matrix. To analyze the stability of all components in the plasma, six replicates of QC samples at three concentrations were hereby prepared under each condition. The stability of the QC samples at three concentrations was analyzed under different storage conditions: −80°C for 30 days, after three freeze–thaw cycles, and 24 h in an auto sampler at 4°C.

The mark [3] stands for this setting: NAFLD rats compared with the normal group, oral LGZGD.

Read-outs that look alike come from different tables or passages of the source.

`O=C(O)/C=C/c1ccccc1` [Cinnamic acid, cinnamic acid]: in series [1] (oral LGZGD), the “AUC0-∞ value decreased” value was found to be 58.1% and the “C max value decreased” value is 38.3%. Further, in series [1] (Model (NAFLD) group), the area under the curve AUC(0-inf) is 4410 ± 1420 ng·h/mL, the AUC(0-t) was 4330 ± 1330 ng·h/mL, the highest level (Cmax) was 1190 ± 352 ng/mL and the Tmax stood at 0.6 ± 0.1 h. In series [1] (Model (NAFLD) group), the half-life was 6.6 ± 3.5 h and the MRT last was determined as 6.2 ± 1.8 h. In series [1] (Normal group), the AUC(0-inf) was found to be 10500 ± 1900 ng·h/mL, the AUC(0-t) was determined as 10100 ± 1770 ng·h/mL, the Cmax worked out at 1930 ± 484 ng/mL and the Tmax turned out to be 0.6 ± 0.1 h. Moreover, in series [1] (Normal group), the half-life was 12.8 ± 3.6 h and the MRT last amounted to 8.2 ± 1.3 h. In series [2] (high QC level), the “Stability during 24 h at 4°C, RE” value is given as −3.7%; the “Three freeze–thaw cycles, RE” value is −11.1%; the “−80°C for 30 days, RE” value is reported as −2.6%. In series [2] (low QC level), the “Stability during 24 h at 4°C, RE” value came out at 8.4%; the “Three freeze–thaw cycles, RE” value is −0.4%; the “−80°C for 30 days, RE” value was −8.0%. Also, in series [2] (medium QC level), the “Stability during 24 h at 4°C, RE” value was 13.9%; the “Three freeze–thaw cycles, RE” value was determined as 0.7%; the “−80°C for 30 days, RE” value is reported as 3.6%.

For the compound `CC1(C)[C@@H](O)CC[C@]2(C)[C@H]3C(=O)C=C4[C@@H]5C[C@@](C)(C(=O)O)CC[C@]5(C)CC[C@@]4(C)[C@]3(C)CC[C@@H]12` [Glycyrrhetinic acid, glycyrrhetinic acid], in series [1] (oral LGZGD), the “AUC0-∞ value decreased” value came out at 50.6% and the “C max value decreased” value was found to be 65.0%. Moreover, the MRT0-t prolonged in series [1] (setting [3]) was determined as 44.4%. In addition, in series [1] (Model (NAFLD) group), the AUC(0-inf) turned out to be 26200 ± 14400 ng·h/mL, the AUC(0-t) stood at 25600 ± 14800 ng·h/mL, the concentration peaked (Cmax) at 1650 ± 1170 ng/mL and the Tmax was 13.2 ± 6.3 h. Moreover, in series [1] (Model (NAFLD) group), the half-life is 8.9 ± 4.5 h and the MRT last was determined as 15.6 ± 2.3 h. Besides, in series [1] (Normal group), the AUC(0-inf) was 89600 ± 28600 ng·h/mL, the AUC(0-t) came to 88200 ± 27200 ng·h/mL, the peak level (Cmax) was 7280 ± 2080 ng/mL and the Tmax worked out at 9.3 ± 1.6 h. Also, in series [1] (Normal group), the half-life was 6 ± 2.1 h and the MRT last was found to be 10.8 ± 1.1 h. In series [2] (high QC level), the “Stability during 24 h at 4°C, RE” value is given as −8.9%; the “Three freeze–thaw cycles, RE” value is 2.2%; the “−80°C for 30 days, RE” value was found to be 2.6%. In series [2] (low QC level), the “Stability during 24 h at 4°C, RE” value stood at 5.2%; the “Three freeze–thaw cycles, RE” value was −0.4%; the “−80°C for 30 days, RE” value is −5.2%. Moreover, in series [2] (medium QC level), the “Stability during 24 h at 4°C, RE” value was 6.7%; the “Three freeze–thaw cycles, RE” value is −7.7%; the “−80°C for 30 days, RE” value is recorded as −4.9%.

Take `C=C(CC[C@@H](C(=O)O)[C@H]1[C@H](O)C[C@@]2(C)C3=CC[C@H]4C(C)(C)[C@@H](O)CC[C@]4(C)C3=CC[C@]12C)C(C)C` [Dehydrotumulosic acid, dehydrotumulosic acid]: in series [1] (oral LGZGD), the “AUC0-∞ value decreased” value is recorded as 75.1% and the “C max value decreased” value was 62.4%. Moreover, the MRT decreased in series [1] (setting [3]) is reported as 27.8%. Also, in series [1] (Model (NAFLD) group), the AUC(0-inf) came out at 43.5 ± 12 ng·h/mL, the AUC(0-t) is 43.4 ± 12 ng·h/mL, the highest level (Cmax) was 3.8 ± 0.6 ng/mL and the Tmax came out at 1.8 ± 1.6 h. For the same compound, in series [1] (Model (NAFLD) group), the half-life is 5 ± 1.8 h and the MRT last was found to be 10.4 ± 2.2 h. In series [1] (Normal group), the AUC(0-inf) is 175 ± 37.2 ng·h/mL, the AUC(0-t) was 142 ± 15.8 ng·h/mL, the concentration peaked (Cmax) at 10.1 ± 3 ng/mL and the Tmax is 4 ± 1.8 h. For the same compound, in series [1] (Normal group), the half-life was 19 ± 12.2 h and the MRT last was determined as 14.4 ± 2.7 h. In series [2] (high QC level), the “Stability during 24 h at 4°C, RE” value was −2.3%; the “Three freeze–thaw cycles, RE” value is recorded as 5.5%; the “−80°C for 30 days, RE” value stood at 3.0%. In series [2] (low QC level), the “Stability during 24 h at 4°C, RE” value was found to be 3.8%; the “Three freeze–thaw cycles, RE” value was −12.8%; the “−80°C for 30 days, RE” value came to 3.2%. Moreover, in series [2] (medium QC level), the “Stability during 24 h at 4°C, RE” value came out at 1.6%; the “Three freeze–thaw cycles, RE” value is −4.3%; the “−80°C for 30 days, RE” value was 10.2%.
